Here are results for 5 compounds from ChEMBL document CHEMBL4622922, “Discovery of novel potent GPR40 agonists containing imidazo[1,2-a]pyridine core as antidiabetic agents” (Bioorg Med Chem, 2020).

Series [1] addresses Free fatty acid receptor 1 (Homo sapiens, UniProt O14842). Briefly: Agonist activity at GPR40 (unknown origin).
Series [2] in a line: Half life in Sprague-Dawley rat at 10 mg/kg, po by LC-MS/MS analysis. As to conditions: in vivo. In kind it is ADME, organism-based.
The nature of series [3]: Hepatotoxicity in HFD fed/STZ-treated diabetic C57BL/6 mouse model assessed as increase in AST level in blood at 30 mg/kg, po administered for 4 weeks. As to conditions: in vivo, 672 h. In kind it is toxicity, organism-based.
Series [4] in a line: AUC (0 to 24 hrs) in Sprague-Dawley rat at 10 mg/kg, po by LC-MS/MS analysis. In kind it is ADME, organism-based. Set-up: time < 24 hr, dose 10 mg/kg, route oral. As to conditions: in vivo.
The nature of series [5]: Hypoglycemic activity in normoglycemic ICR mouse assessed as blood glucose level at 30 mg/kg, po administered 30 mins prior to glucose challenge and measured at 1 hr post-compound administration by OGTT. In kind it is ADME, organism-based. The following applies: in vivo.
Series [6] in a line: Tmax in Sprague-Dawley rat at 10 mg/kg, po by LC-MS/MS analysis. It counts as ADME, organism-based. As to conditions: in vivo.
Series [7] in a line: Clearance in Sprague-Dawley rat at 10 mg/kg, po by LC-MS/MS analysis. As to conditions: in vivo. In kind it is ADME, organism-based.
Series [8] can be described thus: Hypoglycemic activity in normoglycemic ICR mouse at 90 mg/kg, po administered for 30 mins followed by glucose challenge and measured upto 120 mins by OGTT. In kind it is ADME, organism-based. As to conditions: in vivo.
Series [9] in a line: Hepatotoxicity in HFD fed/STZ-treated diabetic C57BL/6 mouse model assessed as increase in ALT level in blood at 30 mg/kg, po administered for 4 weeks. In kind it is toxicity, organism-based. As to conditions: in vivo, 672 h.
The subject of series [10] is Mus musculus. Briefly: Glucose lowering activity in po dosed normoglycemic ICR mouse assessed as suppression of blood glucose level administered for 30 mins followed by glucose challenge and measured upto 120 mins by OGTT. It counts as functional, organism-based.
A short description of series [11]: Cmax in Sprague-Dawley rat at 10 mg/kg, po by LC-MS/MS analysis. It counts as ADME, organism-based. Set-up: dose 10 mg/kg, route oral. As to conditions: in vivo.

Sequence of Free fatty acid receptor 1 (O14842 whole entry): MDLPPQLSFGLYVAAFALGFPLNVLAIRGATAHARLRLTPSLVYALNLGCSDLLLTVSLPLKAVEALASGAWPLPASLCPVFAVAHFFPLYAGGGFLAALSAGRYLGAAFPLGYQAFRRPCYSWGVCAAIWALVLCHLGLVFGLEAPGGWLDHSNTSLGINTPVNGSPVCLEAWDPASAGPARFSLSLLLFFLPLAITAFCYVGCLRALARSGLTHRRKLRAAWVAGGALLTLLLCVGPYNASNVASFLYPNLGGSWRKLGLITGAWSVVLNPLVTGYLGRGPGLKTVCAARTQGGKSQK

By EC50 is commonly meant the concentration that produces a half-maximal response. Compound `CC#CC(CC(=O)O)c1ccc(OCc2ccc3nc(-c4ccc(C)cc4C)cn3c2)cc1` (configuration not stated) yielded an EC50 in series [1] of 316 nM.
The half-life is the time needed for the level to fall by half in the phase considered. A lower half-life goes with fast loss. As usually defined, the AUC(0-t) is the area under the concentration-time curve up to a stated or last time point. Read a high AUC(0-t) as more exposure. What is called Tmax is the time at which the peak concentration occurs. As usually defined, the CL/F is clearance divided by bioavailability, as obtained after extravascular dosing. Broadly, the Cmax is the maximum level reached in the sampled fluid or tissue. In series [2], `CC#CC(CC(=O)O)c1ccc(OCc2ccc3nc(-c4ccc(OC)cc4)cn3c2)cc1` (configuration not stated) showed a half-life of 5.93 h. Also, the midpoint of the response in series [1], the EC50, lay at 47 nM. For the same compound, the Activity result was “Non-Toxic” in [3]; “Non-Toxic” in series [5]; “Non-Toxic” in series [8]; “Non-Toxic” in series [9]; “Dose-dependent effect” in [10]. Besides, in series [4], the area under the curve AUC(0-t) at 24 h was found to be 288 µg·h/mL. For the same compound, in series [6], the Tmax was 8.26 h. In series [7], this compound had a CL/F of 0.454 mL/min/kg. For the same compound, the Cmax in series [11] came to 16300 ng/mL.
`CC#CC(CC(=O)O)c1ccc(OCc2ccc3nc(-c4ccc(C)cc4)cn3c2)cc1` (configuration not stated): in [1], the 50% effective concentration (EC50) was 507 nM.
In [1], `CC#CC(CC(=O)O)c1ccc(OCc2ccn3cc(-c4ccccc4OCC)nc3c2)cc1` (configuration not stated) gave an EC50 of 231 nM. Also, in [5], the Activity result is “Non-Toxic”.
Consider `Cc1cc(OCCCS(C)(=O)=O)cc(C)c1-c1cccc(COc2ccc3c(c2)OC[C@H]3CC(=O)O)c1`, for which the Activity result in series [3] and in series [9] was “Toxic” each time.
